What was measured:
[1] = target: T1, human CCR2 (Homo sapiens, UniProt P41597); test: Functional Ca2+ release test (B-1); format: cell-based; conditions: Chem-1 cell line transfected with human CCR2; 50% inhibition of the MCP-1 effect, MCP-1 at EC50 (about 5 nM); in some cases means of several determinations
T1 construct: host or cells: Chem-1 cell line
T1 sequence (P41597 1-360 isoform P41597-2): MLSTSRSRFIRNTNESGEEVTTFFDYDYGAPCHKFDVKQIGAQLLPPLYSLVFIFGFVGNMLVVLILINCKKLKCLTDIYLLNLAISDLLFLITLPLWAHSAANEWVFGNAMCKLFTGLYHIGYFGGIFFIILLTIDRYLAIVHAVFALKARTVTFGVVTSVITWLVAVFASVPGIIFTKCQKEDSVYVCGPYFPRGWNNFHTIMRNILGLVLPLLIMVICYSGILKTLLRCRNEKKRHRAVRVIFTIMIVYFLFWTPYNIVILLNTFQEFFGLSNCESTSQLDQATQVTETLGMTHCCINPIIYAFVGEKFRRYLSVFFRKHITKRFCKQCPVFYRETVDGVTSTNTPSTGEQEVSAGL
Protocol: The antagonistic action of test substances on CCR2 was determined in a functional Ca^2+ release test. Binding of CCL2/MCP-1 to CCR2 leads to a change in the conformation of the receptor resulting in Gi/Gq protein activation and intracellular signal cascade. This involves, inter alia, an intracellular Ca^2+ release. The test cell used was a Chem-1 cell line transfected with human CCR2 (ChemiSCREEN™ CCR2B Calcium-Optimized FLIPR Cell Line, Merck Millipore).
(§1) The test substances were dissolved in dimethyl sulphoxide (DMSO) at a concentration of 10 mM and serially diluted with DMSO in steps of 1:3.16 for a 10-point dose/activity analysis. According to the desired test concentrations, the substances were pre-diluted in Tyrode with 2 mM CaCl2 and 0.05% BSA.
The cells, cultivated in DMEM high glucose [supplemented with 10% FCS, 1 mM pyruvate, 15 mM HEPES, 500 μg/ml geniticin and non-essential amino acids (NEAA)], were sown at 5000 cells/25 μl in 384 well, μCLEAR/black cell culture plates from Greiner (#781092) and incubated at 37° C. for 24 h. The sowing medium consisted of DMEM high glucose [supplemented with 5% FCS, 1 mM pyruvate, 15 mM HEPES, 50 U/ml penicillin, 50 μg/ml streptomycin and non-essential amino acids (NEAA)]. The medium was then removed and the cells were charged for 60 min at 37° C. with Fluo-4 dye [25 μl Tyrode with 3 μM Fluo-4 AM (1 mM DMSO stock solution), 0.4 mg/ml Brilliant Black, 2.5 mM probenicid, 0.03% Pluronic F-127]. The cells were pre-incubated for 10 min with 10 μl of the test substances diluted in buffer, and 20 μl of agonist solution (MCP-1 in Tyrode with 0.05% BSA) were then added. MCP-1 was employed at the concentration which corresponds to the EC50 which had been determined in a preliminary test (usually about 5 nM). Ca^2+ release was monitored over a period of 120 s in 1 s increments in a proprietary fluorescence imaging reader. The molar concentration of the test substance which caused 50% inhibition of the MCP-1 effect (IC50) was determined using a 4-parameter logistic function (Hill function).

[2] = target: T2, murine CCR2 (Mus musculus, UniProt P51683); test: Functional β-arrestin recruiting test with murine MCP-1 (B-2b); format: cell-based; conditions: U2OS β-arrestin cell line transfected with murine CCR2; agonist murine MCP-1; in some cases means of several determinations
T2 construct: host or cells: U2OS β-arrestin cell line
T2 sequence (P51683 whole entry): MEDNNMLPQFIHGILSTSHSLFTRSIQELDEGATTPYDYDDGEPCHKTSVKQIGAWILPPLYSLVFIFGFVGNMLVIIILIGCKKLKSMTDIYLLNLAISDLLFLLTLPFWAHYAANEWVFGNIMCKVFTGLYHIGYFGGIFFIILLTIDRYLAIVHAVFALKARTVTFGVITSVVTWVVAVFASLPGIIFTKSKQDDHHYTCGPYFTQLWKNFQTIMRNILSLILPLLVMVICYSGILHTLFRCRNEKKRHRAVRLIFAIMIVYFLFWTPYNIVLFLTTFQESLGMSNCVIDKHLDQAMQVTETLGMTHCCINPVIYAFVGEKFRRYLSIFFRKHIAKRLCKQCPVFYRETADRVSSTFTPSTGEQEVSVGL
Protocol: The antagonistic action of test substances on CCR2 was determined in a β-arrestin test. The PathHunter β-arrestin GPCR test system (DiscoveRx Corporation, Ltd.) is a cell-based functional method for detecting binding of β-arrestin to an activated receptor. The molecular basis is a […] complementation measured by the enzymatic conversion of a chemiluminescent substrate. The test cell used was a U2OS β-arrestin cell line transfected with murine CCR2 (93-0543C3, DiscoveRx Corporation, Ltd.).
as §1
The cells, cultivated in MEM Eagle (supplemented with 10% FCS, 50 U/ml of penicillin, 50 μg/ml of streptomycin, 250 μg/ml of hygromycin and 500 μg/ml of geniticin), were sown at 2000 cells/25 μl in 384 well, μCLEAR/black cell culture plates from Greiner (#781092) and incubated at 37° C. for 24 h. The sowing medium consisted of Opti-MEM (supplemented with 1% FCS, 50 U/ml of penicillin and 50 μg/ml of streptomycin). The cells were pre-incubated for 10 min with 10 μl of the test substances diluted in buffer, and 10 μl of agonist solution [human MCP-1 (PeproTech, #300-04) in Tyrode with 0.05% BSA) were then added. The human MCP-1 was employed at the concentration which corresponds to the EC50 which had been determined in a preliminary test (usually about 3 nM). After 90 min of incubation at 37° C., the solution was removed, and recruitment of β-arrestin to CCR2 was detected with the aid of the PathHunter detection reagent (93-001, DiscoveRx Corporation, Ltd.) according to the instructions of the manufacturer. Luminescence was measured after an incubation time of 60 min using a proprietary luminescence imaging measuring instrument. The molar concentration of the test substance which caused 50% inhibition of the MCP-1 effect (IC50) was determined using a 4-parameter logistic function (Hill function).
The test was carried out in a manner identical to that described above under B-2a, but using murine MCP-1 (PeproTech, #250-10) as agonist.

Compound | IC50 [1] [nM] | IC50 [2] [nM]
O=c1[nH]c(-c2ccncc2Cl)nc(C(F)(F)F)c1Oc1ccc(Cl)c(C(F)(F)F)c1 [Example 131, 2-(3-chloropyridin-4-yl)-5-[4-chloro-3-(trifluoromethyl)phenoxy]-6-(trifluoromethyl)pyrimidin-4(3H)-one] | 2.8 | 158
CSc1cnn(-c2nc(C(F)(F)F)c(Oc3ccc(Cl)c(Cl)c3)c(=O)[nH]2)c1 [Example 248] | 2.2 | 1230
CCn1ccc(-c2nc(C(F)(F)F)c(Oc3ccc(Cl)c(C(F)(F)F)c3)c(=O)[nH]2)n1 [Example 240] | 0.5 | 107
COc1cc(OC)nc(-c2nc(C(F)(F)F)c(Oc3ccc(Cl)c(Cl)c3)c(=O)[nH]2)n1 [Example 156, 5-(3,4-dichlorophenoxy)-4′,6′-dimethoxy-6-(trifluoromethyl)-2,2′-bipyrimidin-4(3H)-one] | 0.7 | 244
COc1ccnc(-c2nc(C(F)(F)F)c(Oc3ccc(Cl)c(C(F)(F)F)c3)c(=O)[nH]2)c1 [Example 152, 5-[4-chloro-3-(trifluoromethyl)phenoxy]-2-(4-methoxypyridin-2-yl)-6-(trifluoromethyl)pyrimidin-4(3H)-one] | 8.2 | 838
O=c1[nH]c(-c2ccc(Cl)cn2)nc(C(F)(F)F)c1Oc1ccc(Cl)c(C(F)(F)F)c1 [Example 195, 2-(5-chloropyridin-2-yl)-5-[4-chloro-3-(trifluoromethyl)phenoxy]-6-(trifluoromethyl)pyrimidin-4(3H)-one] | 1.1 | 157
Nc1ccn(-c2nc(C(F)(F)F)c(Oc3ccc(Cl)c(Cl)c3)c(=O)[nH]2)n1 [Example 256, 2-(3-Amino-1H-pyrazol-1-yl)-5-(3,4-dichlorophenoxy)-6-(trifluoromethyl)pyrimidin-4(3H)-one] | 0.8 | 100
COc1cc(OC)nc(-c2nc(C(F)(F)F)c(Oc3ccc(Cl)c(C(F)(F)F)c3)c(=O)[nH]2)n1 [Example 122, 5-[4-chloro-3-(trifluoromethyl)phenoxy]-4′,6′-dimethoxy-6-(trifluoromethyl)-2,2′-bipyrimidin-4(3H)-one] | 0.6 | 164
Cn1ccc(-c2nc(C(F)(F)F)c(Oc3ccc(Cl)c(C(F)(F)F)c3)c(=O)[nH]2)n1 [Example 226] | 0.5 | 87
CC(C)(C)Oc1ccnc(-c2nc(C(F)(F)F)c(Oc3ccc(Cl)c(C(F)(F)F)c3)c(=O)[nH]2)c1 [Example 160, 2-(4-tert-butoxypyridin-2-yl)-5-[4-chloro-3-(trifluoromethyl)phenoxy]-6-(trifluoromethyl)pyrimidin-4(3H)-one] | 62 | 1960
O=c1[nH]c(-c2ncccc2C(F)(F)F)nc(C(F)(F)F)c1Oc1ccc(Cl)c(C(F)(F)F)c1 [Example 186, 5-[4-chloro-3-(trifluoromethyl)phenoxy)-6-(trifluoromethyl)-2-[3-(trifluoromethyl)pyridin-2-yl]pyrimidin-4(3H)-one] | 4.8 | 513
CNc1ccnc(-c2nc(C(F)(F)F)c(Oc3ccc(Cl)c(C(F)(F)F)c3)c(=O)[nH]2)c1 [Example 169, 5-[4-chloro-3-(trifluoromethyl)phenoxy]-2-[4-(methylamino)pyridin-2-yl]-6-(trifluoromethyl)pyrimidin-4(3H)-one] | 36 | 624
CC(C)Oc1ccnc(-c2nc(C(F)(F)F)c(Oc3ccc(Cl)c(C(F)(F)F)c3)c(=O)[nH]2)c1 [Example 150, 5-[4-chloro-3-(trifluoromethyl)phenoxy]-2-(4-isopropoxypyridin-2-yl)-6-(trifluoromethyl)pyrimidin-4(3H)-one] | 23 | 1340
COc1nccnc1-c1nc(C(F)(F)F)c(Oc2ccc(Cl)c(C(F)(F)F)c2)c(=O)[nH]1 [Example 116] | 0.3 | 37

The remaining lines, values ahead:

IC50 [1] [nM] | IC50 [2] [nM] | Compound
692 | 720 | COc1nn(C)cc1-c1nc(C(F)(F)F)c(Oc2ccc(Cl)c(Cl)c2)c(=O)[nH]1 [Example 236]
103 | 679 | C[S+]([O-])c1cccnc1-c1nc(C(F)(F)F)c(Oc2ccc(Cl)c(Cl)c2)c(=O)[nH]1 (stereo not drawn) [Example 267, 5-(3,4-Dichlorophenoxy)-2-[3-(methylsulphinyl)pyridin-2-yl]-6-(trifluoromethyl)pyrimidin-4(3H)-one]
0.6 | 28 | Nc1ccc(-c2nc(C(F)(F)F)c(Oc3ccc(Cl)c(Cl)c3)c(=O)[nH]2)nc1 [Example 123, 2-(5-aminopyridin-2-yl)-5-(3,4-dichlorophenoxy)-6-(trifluoromethyl)pyrimidin-4(3H)-one]
0.5 | 44 | O=c1[nH]c(-c2ccon2)nc(C(F)(F)F)c1Oc1ccc(Cl)c(Cl)c1 [Example 229]
16 | 1600 | O=c1[nH]c(-c2ncccc2-c2ccccc2)nc(C(F)(F)F)c1Oc1ccc(Cl)c(Cl)c1 [Example 187, 5-(3,4-dichlorophenoxy)-2-(3-phenylpyridin-2-yl)-6-(trifluoromethyl)pyrimidin-4(3H)-one]
0.8 | 21700 | CN(C)c1ccc(-c2nc(C(F)(F)F)c(Oc3ccc(Cl)c(Cl)c3)c(=O)[nH]2)nc1 [Example 133, 5-(3,4-dichlorophenoxy)-2-[5-(dimethylamino)pyridin-2-yl]-6-(trifluoromethyl)pyrimidin-4(3H)-one]
1 | 80 | COc1csnc1-c1nc(C(F)(F)F)c(Oc2ccc(Cl)c(Cl)c2)c(=O)[nH]1 [Example 237]
15 | 423 | O=c1[nH]c(-c2ncccc2OC(F)(F)F)nc(C(F)(F)F)c1Oc1ccc(Cl)c(Cl)c1 [Example 203]
8.8 | 277 | CNc1cccc(-c2nc(C(F)(F)F)c(Oc3ccc(Cl)c(Cl)c3)c(=O)[nH]2)n1 [Example 166, 5-(3,4-dichlorophenoxy)-2-[6-(methylamino)pyridin-2-yl]-6-(trifluoromethyl)pyrimidin-4(3H)-one]
1.1 | 86 | COc1cncnc1-c1nc(C(F)(F)F)c(Oc2ccc(Cl)c(Cl)c2)c(=O)[nH]1 [Example 143, 5-(3,4-dichlorophenoxy)-5′-methoxy-6-(trifluoromethyl)-2,4′-bipyrimidin-4(3H)-one]
